Measurements from patent US10799495B2, “Aaptamine alkaloid derivatives and synthesis method and application thereof” (RENJI HOSPITAL, SHANGHAI JIAO TONG UNIVERSITY SCHOOL OF …, priority 2017, dated 2020).
In brackets after ≈: the same amount, converted by molar mass. Where two headings read alike, the source gives them in different places.

Tests used:
Type in all cases: cell-based
Trichophyton rubrum = assay: In vitro antifungal drug sensitivity test (microdilution method), Trichophyton rubrum; conditions: for MIC: read-out: Antifungal activity MIC
Description: (§1) A microdilution method (Pierce C G, Uppuluri P, Tristan A R, et al. A simple and reproducible 96-well plate-based method for the formation of fungal biofilms and its application to antifungal susceptibility testing [J]. Nat Protoc, 2008, 3 (9): 1494-1500.) is adopted, and its experimental procedure refers to the M38-A2 and M27-A2 solutions (Espinel-Ingroff A, Fothergill A, Fuller J, et al. Wild-type MIC distributions and epidemiological cutoff values for caspofungin and Aspergillus Spp. for the CLSI broth microdilution method (M38-A2 document) [J]. Antimicrobl Agents Chemother, 2011, 55 (6): 2855-2859.). Three tested strains (Candida albicans, Trichophyton mentaqrophytes and Trichophyton rubrum) are used as indicator bacteria to carry out in vitro antifungal drug sensitivity screening experiment for the compounds AAP-1-AAP6.
(§2) Control drugs: ketoconazole (purchased from Shanghai Boliang Biotechnology Co., Ltd.), Aaptamine (same as Embodiment 2).

[1] = test system: human lung cancer stem cell PC9-Oct4; assay: In vitro anti-lung cancer stem cell test (CCK-8 cell viability), PC9-Oct4; conditions: read-out: Half effective inhibitory concentration IC50 against tumor cells
Protocol: (§3) In vitro anti-lung cancer stem cell test is carried out on the compounds AAP-1-6 of the present invention, and the lung cancer stem cell lines used are as follows:
(§4) Human lung cancer cell PC9 is purchased from ATCC with ATCC number 32727.
(§5) In addition, Oct4-GFP and Nanog-GFP are highly expressed by lentivirus transfection.
(§6) The original cell culture medium for Human lung cancer stem cells PC9-Nanog and PC9-Oct4 is discarded, 3 mL of PBS is added to rinse the cells twice; 500 μL of 0.25% trypsin is then added for digestion for 3 minutes at 37° C.; and 3 mL of a complete medium is added to terminate the digestion. The cells are pipetted gently with a pipette to make a single cell suspension; the single cell suspension is transferred to a 15 mL centrifuge tube and centrifuged at 800 rpm for 4 minutes; the supernatant is discarded, 6 mL of a complete medium is added to the centrifuge tube, and mixed by pipetting; counting is carried out to prepare […] single cell suspension; the suspension is added to a 96-well plate, 90 μL per well, (wells at the outer ring are not added with the suspension), and finally each well has 3000 cells; and the 96-well plate is incubated for 24 hours in a 37° C., 5% CO2 incubator.
(§7) 1 mg of each of the compounds AAP-1, AAP-2, AAP-3, AAP-4, AAP-5, and AAP-6 of the present invention is prepared into a 10 mM stock solution by using DMSO, and stored in a refrigerator with a temperature of 4° C. Thereafter, the stock solution is diluted with a medium to a 10 μM test solution. The final concentration is 10 μM in a 96-well plate, and the test solution is diluted three folds and added to the plate. Finally, the concentrations of the test solutions of the compounds of the present invention added to the plate are 10 μM, 3.3 μM, 1.1 μM, and 0.33 μM, respectively. The 96-well plate added with the compounds is incubated for 72 hours in a 37° C., 5% CO2 incubator. 72 hours later, 10 μL of CCK-8 solution is added to each well. 40 minutes to 60 minutes later, the absorbance at 450 nm, i.e., the OD value, is measured with a microplate reader. Cell viability is calculated after measuring the OD value of each group of cells. Cell viability (%)=(OD value of the treated group−OD value of the blank group)/(OD value of the blank control group−OD value of the blank group)×100%
(§8) The blank control group is not added with the compounds of the present invention, and the other steps are the same.
(§9) Meanwhile, the positive control drugs Cis-platinum (Shanghai Boliang Biotechnology Co., Ltd.) and Aaptamine (Reference: Enrique L. Larghi, Maria L. Bohn, Teodoro S. Kaufman, Aaptamine and related products. Their isolation, chemical syntheses, and biological activity, Tetrahedron 2009, 65 (22), 4257-4282 synthesis) are used as control groups for in vitro anti-tumor activity test, and the treatment method herein is the same as that for the compounds of the present invention.

Candida albicans = assay: In vitro antifungal drug sensitivity test (microdilution method), Candida albicans; conditions: for MIC: read-out: Antifungal activity MIC
Description: as §1, §2

[2] = test system: human lung cancer stem cell PC9-Nanog; assay: In vitro anti-lung cancer stem cell test (CCK-8 cell viability), PC9-Nanog; conditions: read-out: Half effective inhibitory concentration IC50 against tumor cells
Protocol: as §3, §4, §5, §6, §7, §8, §9

[3] = test system: Trichophyton mentaqrophytes; assay: In vitro antifungal drug sensitivity test (microdilution method), Trichophyton mentaqrophytes; conditions: for MIC: Trichophyton, read-out: Antifungal activity MIC
Description: as §1, §2

[4] = PC9-Oct4 cells, 72 hours incubation, CCK-8
[5] = PC9-Nanog cells, 72 hours incubation, CCK-8
[6] = Trichophyton mentaqrophytes, microdilution
[7] = Homo sapiens, 72 h, PC9-Oct4 cells, 72 hours incubation, CCK-8
[8] = Homo sapiens, 72 h, PC9-Nanog cells, 72 hours incubation, CCK-8

Compound	MIC (Trichophyton rubrum; microdilution) [µg/mL]	IC50 [1, 7] [µM]	MIC (Candida albicans; microdilution) [µg/mL]	IC50 [2, 8] [µM]	MIC [3, 6] [µg/mL]	Antifungal activity MIC (Trichophyton rubrum; microdilution) [µg/mL]	IC50 [1, 4] [µM]	IC50 [2, 5] [µM]	also measured
COc1c(OC)c2c3c(nccc3c1-c1cccc(C(C)C)c1)C(c1cccc(C(C)C)c1)=CN2 [AAP-6, 3,7-bis(3-isopropyphenyl)-8,9dimethoxy-1H-benzo[de][1,6] naphthyridine]	–	–	–	–	–	>30	3.82 ± 0.15	4.82 ± 0.12	Antifungal activity MIC (Candida albicans; microdilution): 25 µg/mL; Antifungal activity MIC [3, 6]: >30 µg/mL
N.N.[Cl][Pt][Cl] [Cis-platinum, reference compound]	–	–	–	–	–	–	3.24 ± 0.05	4.53 ± 0.03	–
COc1cc2ccnc3c2c(c1OC)NC=C3 [Aaptamine]	–	–	–	–	–	>30	–	–	MIC (Trichophyton rubrum): > 30 µg/mL; IC50 ([1]; Homo sapiens, 72 h): 8.44 ± 0.1 µM; MIC (Candida albicans): > 30 µg/mL; IC50 ([2]; Homo sapiens, 72 h): 10.1 ± 0.17 µM; MIC [3]: > 30 µg/mL
CC(=O)N1CCN(c2ccc(OCC3COC(Cn4ccnc4)(c4ccc(Cl)cc4Cl)O3)cc2)CC1 (centres unmarked) [Ketoconazole, ketoconazole, reference compound]	8 (≈ 15.1 µM)	–	8 (≈ 15.1 µM)	–	8 (≈ 15.1 µM)	–	–	–	–

The next lines start with results.

MIC (Trichophyton rubrum; microdilution) [µg/mL]	IC50 [1, 7] [µM]	MIC (Candida albicans; microdilution) [µg/mL]	IC50 [2, 8] [µM]	MIC [3, 6] [µg/mL]	Compound	Antifungal activity MIC (Trichophyton rubrum; microdilution) [µg/mL]	IC50 [1, 4] [µM]	IC50 [2, 5] [µM]	also measured
12.5 (≈ 41.1 µM)	1.04 ± 0.11	> 30	1.24 ± 0.02	25 (≈ 82.1 µM)	COc1cc2ccnc3c2c(c1OC)NC=C3c1ccccc1 [AAP-1, 8,9-dimethoxy-3-phenyl-1H-benzo[de][1,6]naphthyridine]	–	–	–	–
25 (≈ 82.1 µM)	7.22 ± 0.04	> 30	6.82 ± 0.16	25 (≈ 82.1 µM)	COc1c(OC)c2c3c(nccc3c1-c1ccccc1)C=CN2 [AAP-2, 8,9-dimethoxy-7-phenyl-1H-benzo[de][1,6]naphthyridine]	–	–	–	–
